From US20230135758A1, “[…] 1-ALPHA INHIBITORS AND USES THEREOF” (The Regents of the University of California, priority 2020, published 2023)
Entries after “also recorded” stand apart in the source; their conditions may differ. Where two headings read alike, the source gives them in different places. Blank lines part the entries; values can stand above or below the compound they belong to.

Columns and labels:
[1] = tested on: HCT116, H929, and MM1S cells; experiment: Proliferation assay (transient exposure, followed by washout), CellTiter Glo; format: cell-based; settings: for antiproliferative activity after transient exposure and washout: 1 h or 4 h exposure, stringent washout, 72 h compound-free media, HCT116, H929, MM1S
Procedure: 0.6×10^6 cells were seeded in 3 mL complete growth media per well in 6-well plates. […] For adherent cells, growth media was carefully removed, cells were washed with warm PBS twice (2×short wash), and followed by 5 min incubation in warm media at 37° C. (long wash). After repeating the “short-long” washing cycle 3 times, cells were resuspended in warm media and plated in flat-bottom 96-well plates (100 uL/well) at equal cell number. For suspension cells, cells were collected and spun down at 300×g for 3 min. Supernatant was carefully removed, cells were then washed with warm PBS twice (2× short wash), followed by 5 min incubation in warm media at 37° C. (long wash). After repeating the “short-long” washing cycle 3 times, cells were resuspended in warm media and plated in flat-bottom 96-well plates (100 uL/well) at equal cell number. After the indicated times post-washout, CellTiter Glo (Promega, Madison, Wis.) was used to asses the cell viability per the manufacturer's instructions. Briefly, after adding 100 uL CellTiter Glo reagent to each well, the plate was rocked at room temperature for 5-10 min, and luminescence intensity was measured. Proliferation curves were generated by first normalizing luminescence intensity in each well to the average T=0 value for each compound. Normalized luminescence intensity was plotted in GraphPad Prism (triplicate values, mean±SD).

[2] = tested on: eEF1A-mutant (A399V) HCT116 cells; settings: read-out: IC50, cell proliferation in eEF1A-mutant (A399V) cells; 72 h; AlamarBlue
Procedure: Cell proliferation (% DMSO control) was quantified using AlamarBlue. […] Data points (% DMSO control) are mean values±SD (n=3).
Adherent cells were briefly trypsinized and repeatedly pipetted to produce a homogeneous cell suspension. 2,500 cells were seeded in 100 uL complete growth media per well in 96-well clear-bottom plates. Suspension cells were repeatedly pipetted to produce a homogeneous cell suspension. 10,000 cells were seeded in 100 uL complete growth media per well in 96-well clear-bottom plates. After allowing cells to grow/adhere overnight, cells were treated with 25 uL/well 5×drug stocks (0.1% DMSO final) and incubated for 72 hr. AlamarBlue (Life Technologies, Grand Island, N.Y.) was used to assess cell viability per the manufacturer's instructions. Briefly, 12.5 uL alamarBlue reagent was added to each well, and plates were incubated at 37° C. Fluorescence intensity was measured every 30 min to determine the linear range for each assay (Ex 545 nm, Em 590 nm, SPARK, Tecan Austria GmbH, Austria). Proliferation curves were generated by first normalizing fluorescence intensity in each well to the DMSO-treated plate average. Normalized fluorescence intensities were plotted in GraphPad Prism (GraphPad, La Jolla, Calif.), and IC50 values calculated from nonlinear regression curves. The reported IC50 values represent the average of at least three independent determinations (±SD).

[3] = tested on: protein synthesis in HCT116 cells; experiment: Protein synthesis inhibition assay (continuous exposure), O-propargyl puromycin incorporation; format: cell-based; settings: 24 h treatment, 1 h OPP pulse, read-out: IC50, rate of protein synthesis
Procedure: HCT116 cells at 80% confluency in 12-well plates were incubated with compounds with varying concentrations for 10 min or 24 hours at 37° C. After the indicated time, O-propargyl-puromycin (30 μM final concentration) was added, and the cells were incubated for 1 hour at 37° C. Subsequently, media was removed, and cells were trypsinized, collected, and washed twice with ice-cold PBS before transferring to a 96-well V bottom plate. 100 uL Zombie Red (BioLegend, San Diego, Calif.) solution was added to each well and incubated for 30 min at RT in dark. Cells were then washed with 2% FBS in PBS buffer before fixed with 200 uL of 4% PFA in PBS for 15 min on ice in dark. After washing the cells with 2% FBS in PBS buffer, 200 uL permeabilization buffer (3% FBS, 0.1% saponin in PBS) was added to each well, and the cells were incubated for 5 min at RT in the dark. Cells were then washed and resuspended in 25 uL permeabilization buffer. 100 uL click chemistry mix (50 mM HEPES pH=7.5, 150 mM NaCl, 400 uM TCEP, 250 uM TBTA, 5 uM CF405M-Azide (Biotium, Fremont, Calif.), 200 uM Cu2SO4) was added to each well, and cells were incubated at RT in the dark. […] Only single, live cells were analyzed (FlowJo), as judged by forward/side scattering and the absence of Zombie Red staining. […]

[4] = tested on: protein synthesis in HCT116 cells; experiment: Protein synthesis inhibition assay (transient exposure, followed by washout), O-propargyl puromycin incorporation; format: cell-based; settings: 100 nM for 4 h, 24 h compound-free media
Procedure: HCT116 cells at 80% confluency in 24-well plates were incubated with compounds with at 100 nM for 4 hours at 37° C. O-propargyl-puromycin (30 uM final concentration) was then added, and the cells were incubated for 1 hour at 37° C. Media was carefully removed, cells were washed with warm PBS twice (2× short wash), followed by 5 min incubation in warm medium at 37° C. (long wash). After repeating the “short-long” washing cycle for 3 times, cells were then resuspended in warm media and incubated at 37° C. After the indicated time post-washout, media was removed, and cells were trypsinized, collected, and washed twice with ice-cold PBS before transferring to a 96-well V bottom plate. 100 uL Zombie Red (BioLegend, San Diego, Calif.) solution was added to each well and incubated for 30 min at RT in the dark. Cells were then washed with 2% FBS in PBS buffer before fixed with 200 uL of 4% PFA in PBS for 15 min on ice in dark. After washing the cells with 2% FBS in PBS buffer, 200 uL permeabilization buffer (3% FBS, 0.1% Saponin in PBS) was added to each well, and cells were incubated for 5 min at RT in the dark. Cells were then washed and resuspended in 25 uL permeabilization buffer. 100 uL click chemistry mix (50 mM HEPES pH=7.5, 150 mM NaCl, 400 uM TCEP, 250 uM TBTA, 5 uM CF405M-Azide (Biotium, Fremont, Calif.), 200 uM Cu2SO4) was added to each well, and cells were incubated at RT in dark. After the overnight incubation, cells were washed with permeabilization buffer followed by FACS buffer (2% FBS, 1% P/S, 2 mM EDTA, in PBS w/o Ca/Mg). Cells were then resuspended in 200 uL FACS buffer and filtered before FACS analysis (FACSCanto II, Becton Dickinson, Franklin Lakes, N.J.). Only single, live cells were analyzed (FlowJo), as judged by forward/side scattering and the absence of Zombie Red staining. Protein synthesis inhibition curves were generated by first normalizing intensity to the cycloheximide-treated (50 μg/mL for 1 h, maximum inhibition) and DMSO-treated control samples. Normalized intensity was plotted in GraphPad Prism.

HCT116 cells = experiment: Cell viability, Alamar Blue, 24 h treatment; format: cell-based; settings: relative to DMSO controls
Procedure: 5,000 HCT116 cells were seeded in 100 μL complete growth media per well in 96-well plates.

FIG. 14 [5] = experiment: FIG. 14
Procedure: (§1) Table printed on a drawing sheet, FIG. 14
(§2) The patent's description of the figure: FIG. 14. SRA3 pharmacokinetic data. PK studies were performed in C57BL/6 mice
First reader's note: IP route is given in the head cell of the first column; the plot legend on the same sheet prints IP 2 mg/kg in mouse.

FIG. 14 [6] = experiment: FIG. 14; remark: listed apart in the source
Procedure: as §1, §2
First reader's note: IV route is given in the head cell of the first column; the plot legend on the same sheet prints IV 2 mg/kg in mouse.

[7] = tested on: HCT116, H929, and MM1S cells; experiment: Proliferation assay (continuous exposure), 72 h, Alamar Blue; format: cell-based; settings: 72 h continuous
Procedure: To assess in vitro anticancer activity, HCT116, H929, and MM1S cells were treated continuously for 72 hours with increasing concentrations of (S,S)-A3, (S,R)-A3, or dA3 (cyclic peptide 4 (Carelli, Taunton, et al., eLife, 2015), here termed “dA3” (deoxy-A3)). Cell viability was then assessed using the Alamar Blue assay.

Eμ-Myc/+ lymphoma cells = experiment: Eμ-Myc mouse lymphoma model; format: in vivo
Procedure: Mouse studies were approved by the University of California, San Francisco Institutional Animal Care and Use Committee (IACUC). Eμ-Myc/+ mice were purchased from the Jackson Laboratory. For the Eμ-Myc tumor model, allograft mice were generated using spontaneous lymph node tumors derived from Eμ-Myc mice. 5×10^5 Eμ-Myc/+ lymphoma cells were injected via the tail vein into eight-week-old male C57BL/6J mice. Seven days after lymphoma cell injection, mice were randomized to receive vehicle (10% EtOH/Kolliphor EL in water, n=5 mice) or (S,R)-A3 (n=5 mice) by intraperitoneal injection every other day (3 times per week) until the endpoint based on the IACUC-approved protocol. Eμ-Myc mice in the (S,R)-A3 treatment arm received (S,R)-A3 at a dose of 2 mg/kg for the first 21 days and 1-2 mg/kg after treatment day 21 according to their body weights (BW): BW>26 g, 2 mg/kg; BW 25-26 g, 1.5 mg/kg; BW 24-25 g, 1 mg/kg).
We next tested the effect of (S,R)-A3 in a preclinical mouse model of B-cell lymphoma using an intermittent dosing regimen (QOD×3, every other day, 3 doses per week via intraperitoneal injection). Eμ-Myc/+ mice are a well-characterized mouse lymphoma model that overexpress MYC under the transcriptional control of the IgH enhancer element. These mice recapitulate the genetic lesion underlying Burkitt's Lymphoma. Eμ-Myc/+ lymphoma cells were injected via the tail vein into eight-week-old male C57BL/6J mice. Seven days after lymphoma cell injection, mice were randomized to receive vehicle or (S,R)-A3 by intraperitoneal injection (QOD×3, n=5 mice/treatment arm).

[8] = molecular target: eEF1A (Elongation Factor 1-alpha), wild type (UniProt P68104); experiment: cell-based or functional assay
[9] = C57BL/6, mouse, in vivo, ip, 2 mg/kg
[10] = C57BL/6, mouse, in vivo, iv, 2 mg/kg

Chain of eEF1A (Elongation Factor 1-alpha), wild type (P68104 2-462): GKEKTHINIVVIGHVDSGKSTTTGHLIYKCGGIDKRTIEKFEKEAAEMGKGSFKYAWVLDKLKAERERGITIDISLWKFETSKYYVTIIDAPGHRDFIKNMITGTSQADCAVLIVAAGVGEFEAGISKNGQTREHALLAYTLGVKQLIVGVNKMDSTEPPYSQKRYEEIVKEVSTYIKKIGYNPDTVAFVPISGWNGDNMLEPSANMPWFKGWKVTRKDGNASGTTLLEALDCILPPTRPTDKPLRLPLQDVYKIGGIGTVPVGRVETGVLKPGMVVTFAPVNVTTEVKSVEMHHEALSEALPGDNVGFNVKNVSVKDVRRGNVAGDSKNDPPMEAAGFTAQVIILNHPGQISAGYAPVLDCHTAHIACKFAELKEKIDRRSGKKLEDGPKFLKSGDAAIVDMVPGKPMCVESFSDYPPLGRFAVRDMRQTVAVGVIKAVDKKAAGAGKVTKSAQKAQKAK

Compound: C=C[C@H](C)C[C@@H]1NC(=O)[C@H]([C@H](O)C(C)C)N(C)C(=O)[C@H](C)N(C)C(=O)[C@@H]([C@@H](C)CC)NC(=O)[C@@H]([C@H](O)C(C)C)NC(=O)[C@H]2CCCCN2C(=O)[C@H](C)N(C)C1=O [SR-A3]
- cell proliferation after washout ([1]; HCT116, 100 nM for 4 h, rigorous washout, 72-h washout period): nearly abolished
- IC50 [2]: > 1000 nM
- IC50 [3]: ~20 nM
- recovery of protein synthesis after washout [4]: sustained inhibition

Compound: C=C[C@H](C)C[C@@H]1NC(=O)[C@H]([C@H](O)C(C)C)N(C)C(=O)[C@H](C)N(C)C(=O)[C@@H]([C@@H](C)CC)NC(=O)[C@@H]([C@H](O)C2CC2)NC(=O)[C@H]2CCCCN2C(=O)[C@H](C)N(C)C1=O [WHY4014]
- IC50 (HCT116 cells): 14.8 nM

Compound: C=C[C@H](C)C[C@@H]1NC(=O)[C@H]([C@H](O)C(C)C)N(C)C(=O)[C@H](C)N(C)C(=O)[C@@H]([C@H](C)CC)NC(=O)[C@@H]([C@H](O)C(C)C)NC(=O)[C@H]2CCCCN2C(=O)[C@H](C)N(C)C1=O [WHY3179]
- IC50 (HCT116 cells): 6.3 nM

Compound: C=C[C@H](C)C[C@@H]1NC(=O)[C@H]([C@H](O)C(C)C)N(C)C(=O)[C@H](C)N(C)C(=O)[C@@H]([C@@H](C)CC)NC(=O)[C@@H]([C@H](O)C(C)C)NC(=O)[C@H]2CCCCN2C(=O)[C@H](C)N(C)C1=O [SRA3]
- AUCInf (FIG. 14 [5]): 384 ng·h/mL
- AUCInf/D (FIG. 14 [5]): 192 kg·ng·h/mL/mg
- AUClast (FIG. 14 [5]): 347 ng·h/mL
- F (%) (FIG. 14 [5]): 97.2%
- tmax (FIG. 14 [5]): 0.583 h
- Cmax (FIG. 14 [5]; [9]): 86.6 ng/mL
- MRT (FIG. 14 [5]; [9]): 8.63 h
- half-life (FIG. 14 [5]; [9]): 8.21 h
- AUCInf (FIG. 14 [6]): 395 ng·h/mL
- AUClast (FIG. 14 [6]): 367 ng·h/mL
- CL (FIG. 14 [6]): 87.2 mL/min/kg
- Vss (FIG. 14 [6]): 42.0 L/kg
- Vz (FIG. 14 [6]): 52.7 L/kg
- C0 (FIG. 14 [6]; [10]): 204 ng/mL
- MRT (FIG. 14 [6]; [10]): 7.97 h
- half-life (FIG. 14 [6]; [10]): 6.79 h

Compound: C=C[C@H](C)C[C@@H]1NC(=O)[C@H]([C@H](O)C(C)C)N(C)C(=O)[C@H](C)N(C)C(=O)[C@@H]([C@@H](C)CC)NC(=O)[C@@H]([C@H](O)C(C)C)NC(=O)[C@H]2CCCCN2C(=O)[C@H](C)N(C)C1=O [(S,R)-A3]
- antiproliferative activity after transient exposure and washout [1]: profound and sustained loss of cell viability; also recorded: strong antiproliferative activity
- recovery of protein synthesis after washout [4]: sustained, washout-resistant manner
- reduction of cell viability, continuous treatment [7]: low nanomolar concentrations
- maximum BW loss (Eμ-Myc/+ lymphoma cells; 2 mg/kg (1-2 mg/kg after day 21) intraperitoneal, QOD×3): < 8%
- survival (Eμ-Myc/+ lymphoma cells; 2 mg/kg (1-2 mg/kg after day 21) intraperitoneal, QOD×3, P=0.0027): significantly improved survival
- tumor growth (Eμ-Myc/+ lymphoma cells; 2 mg/kg (1-2 mg/kg after day 21) intraperitoneal, QOD×3, start 7 days after cell injection): reduced tumor growth
- efficacy in mouse lymphoma model (Eμ-Myc/+ lymphoma cells; Eμ-Myc mouse model of B-cell lymphoma): efficacious

- cell proliferation rate after transient exposure (100 nM, 4 h) and washout, HCT116 cells, % of DMSO control (% of DMSO control) [8]: 50
- protein synthesis rate 24 h after washout (100 nM for 4 h), HCT116 cells, % of DMSO control (% of DMSO control) [8]: 30
- rate of protein synthesis (OPP incorporation), HCT116 cells, 10 min treatment; potency relative to SR-A3 [8]: 10 fold
Compound: ternatin-4 (peptide)

Compound: C=C[C@H](C)C[C@@H]1NC(=O)[C@H]([C@@H](O)C(C)C)N(C)C(=O)[C@H](C)N(C)C(=O)[C@@H]([C@@H](C)CC)NC(=O)[C@@H]([C@H](O)C(C)C)NC(=O)[C@H]2CCCCN2C(=O)[C@H](C)N(C)C1=O [(S,S)-A3]
- antiproliferative activity after transient exposure and washout [1]: less efficacious
- recovery of protein synthesis after washout [4]: partially recovered
- reduction of cell viability, continuous treatment [7]: low nanomolar concentrations
